{
  "source": "patent US9303069B2",
  "about": "“Peptides for treating cancer” (University of Mississippi Medical Center, priority 2014, dated 2016)",
  "key": {"caspase 3/7": {"tested_on": "caspase 3/7", "experiment": "Cleaved / activated caspase 3/7 in MDA-MB-231 and MDA-MB-468 cells", "format": "cell-based, human", "settings": "increasing concentrations of IRIS peptide", "experimental": "To assess whether BRCA1-IRIS inactivation can sensitize TNBC cells to lower paclitaxel concentrations, MDA-MB-231 and MDA-MB-468 were exposed to 1 μM of paclitaxel 0, 1, 2, 5 and 10 μM of IRIS peptide for 24 hours. […] Perhaps more importantly, in the presence of only 1 μM of paclitaxel, the IC50 of IRIS peptide was reduced to <2 μM in both cell lines (dark color lines in FIG. 85)."}, "SKOV3 cells": {"tested_on": "SKOV3 cells", "experiment": "Tumor-sphere forming assay, SKOV3", "format": "cell-based, human", "settings": "SKOV3, ultra-low binding dishes, two weeks; IRIS peptide 5 μM every third day", "experimental": "Tumor-sphere: SKOV3 cells treated with scrambled or IRIS peptide (5 μM, added every third day) or expressing BRCA1-IRIS shRNA were grown in ultra-low binding culture dishes as single cells. […] BRCA1-IRIS silencing led to ˜7 fold decrease in tumor-sphere number (FIG. 43) and diameter (FIG. 43, inset), and an even more pronounced effect was detected with IRIS peptide (FIG. 43, and inset).\nTumor-sphere forming assay. Subconfluent monolayer cells were trypsinized and dissociated thoroughly to prepare single cell suspension. 1000 cells were plated, per well, onto ultra-low attachment 6-well plates (Corning Life Sciences, Union City, Calif.) in Dulbecco's modified Eagle's medium (DMEM)/F12 supplemented with 10% FBS, 2% B27 (Invitrogen), 10 ng/ml basic-fibroblast growth factor and 10 ng/mL epidermal growth factor. Cells were then incubated at 37° C. in humidified air with 10% CO2. 500 μl of medium was added to each well every 3 days, the medium containing the scrambled or IRIS peptide. […]"}, "MDA-MB-468 tumors": {"tested_on": "MDA-MB-468 tumors", "experiment": "In vivo efficacy on established MDA-MB-468 tumors", "design": "species or system mice", "settings": "day 12; IRIS peptide 10 mg/kg i.t.; combination at half the concentrations", "experimental": "Nude 6-8 weeks female mice were injected with 2×10^6 of MDA-MB-468 cells in the 2nd left and 4th right mammary fat pads. When all tumors reached ˜0.1 cm^3 in volume, mice were divided into four groups, one received vehicles (i.e. DMSO injected intraperitoneally [i.p.] and scrambled peptide injected directly into tumors [i.t.]), another received paclitaxel (10 mg/kg, i.p.), the third received IRIS peptide at (10 mg/kg, i.t.), and the last received paclitaxel and IRIS peptide at half the concentrations, injected as above. Drugs were delivered every third day for total of four injections.\nIn Vivo efficacy of BRCA1-IRIS-inhibitory peptide. Six to eight week old female athymic SCID mice were injected in the second right and the fourth left mammary gland with 2.5×10^6 of MDAMB468 cells. Tumor growth was followed daily until tumors reached 100 mm^3. At this time mice were randomly grouped into four different groups that were injected: a) with DMSO (i.p.) and scrambled peptide (10 mg/kg) intra-tumoral (i.t.), b) injected with IRIS peptide (10 mg/kg, i.t.), c) injected with paclitaxel (10 mg/kg, i.p.), d) injected with IRIS peptide (5 mg/kg, i.t.), and paclitaxel (5 mg/kg, i.p.). […] Change in tumor volume was measured to monitor the efficacy of the treatments using caliper and is represented as percentage of volume at day 0 of treatment. […]"}, "BRCA1-IRIS and survivin [1]": {"tested_on": "BRCA1-IRIS and survivin", "experiment": "IHC of MDA-MB-468 tumors for BRCA1-IRIS and survivin", "format": "in vivo, mice", "settings": "MDA-MB-468 tumors after treatment", "excerpt": "To study that on the molecular level, sections from these tumors were stained with H&E or for BRCA1-IRIS or survivin using immunohistochemistry. […] Accordingly, it is proposed that inactivating BRCA1-IRIS in TNBC patients might sensitize to lower paclitaxel concentrations to avoid the adverse side effects and also to prevent the recurrence of these tumors at a later point.\nImmunohistochemistry (IHC). Breast tissue microarrays comprised of normal, DCIS, invasive and metastatic were purchased from US Biomax, Inc. Paraffin embedded tissue sections were de-waxed in xylene and rehydrated in alcohol. Antigen-retrieval: for FOXO3a and survivin was by heating the slides in citrate buffer (10 μM, pH 6.0) using microwave (Power level 4) for 10 minutes, for BRCA1-IRIS by incubating slides in pepsin (10 μM) for 20 min at 37° C. Endogenous peroxidase activity was suppressed by treating the slides with 3% H2O2 for 10 min. Slides were then incubated for 1 hour at room temperature with antibodies to human FOXO3a or survivin (Cell Signaling Technology, USA 1:400), or overnight at 4° C. with monoclonal anti-human BRCA1-IRIS (1:75). Vectastain Elite ABC Kit was used to develop the staining using horseradish peroxidase labeled secondary antibodies (1 hour at room temperature)."}, "BRCA1-IRIS and survivin [2]": {"tested_on": "BRCA1-IRIS and survivin", "experiment": "IHC of SKOV3 tumors for BRCA1-IRIS and survivin", "format": "in vivo, mice", "settings": "SKOV3 tumors after treatment", "excerpt": "Isolated tumors were mounted, sectioned and IHC stained for BRCA1-IRIS and survivin. […] It is possible that SKOV3 contain a heterogeneous population of cells that differ in their BRCA1-IRIS expression and thus that the remaining tumors are from those expressing no or low BRCA1-IRIS.\nImmunohistochemistry (IHC). Ovarian tissue microarrays comprised of normal, cancer and metastatic tissues were purchased from US Biomax, Inc. Paraffin-embedded tissue sections were de-waxed in xylene and rehydrated in alcohol. Antigen-retrieval for FOXO3a and survivin was performed by heating the slides in citrate buffer (10 μM, pH 6.0) using microwave for 10 minutes. Slides were then cooled to room temperature (RT) and washed with water followed by PBS for 15 minutes each. Antigen-retrieval for BRCA1-IRIS was performed by incubating the slides in pepsin (10 μM) for 20 minutes at 37° C. Endogenous peroxidase activity was suppressed by treating the slides with 3% hydrogen peroxide for 10 minutes. After washing steps slides were incubated for 1 hour at room temperature with antibodies to human FOXO3a (Cell Signaling Technology, USA 1:400) and survivin (Cell Signaling Technology, USA 1:400). For BRCA1-IRIS staining, slides were incubated overnight at 4° C. with monoclonal BRCA1-IRIS antibody at a 1:75 dilution. […]"}},
  "note": "“Also recorded” adds a separate entry of the source. Ends that are not written are not given here.",
  "data": [
    {"sequence": "RRIRPRPPRLPRPRPRPLPFPRPGIGTRFLCLPQSIYRSELNVYAFGEHILQISKYS [IRIS peptide]", "values": [
      {"measurement": "cleaved / activated caspase 3/7", "setting": "caspase 3/7", "result": "gradual increase in activated caspase 3/7; also recorded: increase cleaved caspase 3/7 in both cell lines"},
      {"measurement": "tumor-sphere formation", "setting": "SKOV3 cells", "result": "formed no tumor-spheres"},
      {"measurement": "tumor size as % of original size (at day 0)", "setting": "MDA-MB-468 tumors", "result": "~75", "unit": "%"},
      {"measurement": "BRCA1-IRIS and survivin expression in tumors (IHC)", "setting": "BRCA1-IRIS and survivin [1]", "result": "almost completely absent"},
      {"measurement": "BRCA1-IRIS and survivin staining of remaining tumor", "setting": "BRCA1-IRIS and survivin [2]", "result": "almost complete absence of BRCA1-IRIS and survivin staining"}
    ]}
  ]
}
